# Biological target: T1, human TRPM8 (Homo sapiens, UniProt Q7Z2W7)
# T1 construct: expressed in transfected cells; host or cells: Chinese hamster ovary (CHO) cells, T-REx tetracycline-inducible system, co-transfected with aequorin
# Test: Luminescence readout assay for measuring intracellular calcium, icilin activation
# Assay type: cell-based
# Conditions: CHO cells expressing human TRPM8, aequorin luminescence, 1 μM icilin activation; read-out: hTRPM8 IC50
# Outline: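 The read-out was luminescence reporting intracellular calcium, recorded by a CCD-based luminometer. Compounds were preincubated for 2.5 min before agonist challenge with 1 μM icilin. Human TRPM8 was expressed in a stable T-REx CHO line, induced with 0.5 μg/mL tetracycline the day before.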
# T1 sequence (Q7Z2W7 whole entry): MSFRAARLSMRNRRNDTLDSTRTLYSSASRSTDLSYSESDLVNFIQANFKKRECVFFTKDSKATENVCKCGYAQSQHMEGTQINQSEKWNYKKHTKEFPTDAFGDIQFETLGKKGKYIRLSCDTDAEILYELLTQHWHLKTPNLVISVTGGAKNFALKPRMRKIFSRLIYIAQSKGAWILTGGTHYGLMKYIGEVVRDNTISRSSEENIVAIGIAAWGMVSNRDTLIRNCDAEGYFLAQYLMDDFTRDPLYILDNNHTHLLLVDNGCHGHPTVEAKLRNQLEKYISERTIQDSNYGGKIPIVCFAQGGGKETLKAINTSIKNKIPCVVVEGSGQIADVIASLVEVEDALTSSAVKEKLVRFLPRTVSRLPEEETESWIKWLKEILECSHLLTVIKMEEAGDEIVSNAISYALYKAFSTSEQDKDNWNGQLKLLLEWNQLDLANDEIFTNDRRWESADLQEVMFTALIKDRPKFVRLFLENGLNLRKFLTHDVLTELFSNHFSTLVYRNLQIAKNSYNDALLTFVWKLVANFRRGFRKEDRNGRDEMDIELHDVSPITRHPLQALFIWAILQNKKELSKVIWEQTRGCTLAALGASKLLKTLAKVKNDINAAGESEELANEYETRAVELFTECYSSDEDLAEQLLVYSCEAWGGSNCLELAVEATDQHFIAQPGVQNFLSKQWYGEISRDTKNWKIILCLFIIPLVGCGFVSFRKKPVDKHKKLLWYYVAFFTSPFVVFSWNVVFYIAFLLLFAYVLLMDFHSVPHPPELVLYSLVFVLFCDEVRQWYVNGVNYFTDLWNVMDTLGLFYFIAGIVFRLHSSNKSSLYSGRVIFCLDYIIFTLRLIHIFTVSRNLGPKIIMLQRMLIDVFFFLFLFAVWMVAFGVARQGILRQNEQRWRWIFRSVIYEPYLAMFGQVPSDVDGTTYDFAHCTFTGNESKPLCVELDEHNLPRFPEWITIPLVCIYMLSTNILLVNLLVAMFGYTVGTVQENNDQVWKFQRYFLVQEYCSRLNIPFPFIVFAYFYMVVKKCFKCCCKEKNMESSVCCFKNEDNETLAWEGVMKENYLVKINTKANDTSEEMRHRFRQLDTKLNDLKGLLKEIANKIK
row,IC50 [nM],SMILES
1,8.9,"O=C(N[C@@H](c1ccc(C(F)(F)F)cc1)c1ncccc1C(F)(F)F)c1ccc2c(c1)CNC2=O [Example 271, (S)-1-Oxo-N-((4-(trifluoromethyl)phenyl)(3-(trifluoromethyl)-pyridin-2-yl)methyl)isoindoline-5-carboxamide]"
2,11.9,"O=C(O)c1ccc(C(=O)N[C@@H](c2ccc(OC(F)(F)F)cc2)c2ncccc2F)nc1 [Example 272, (S)-6-(((3-Fluoropyridin-2-yl)(4-(trifluoromethoxy)phenyl)-methyl)carbamoyl)nicotinic Acid]"
3,16.1,"CNC(=O)c1ccc(C(=O)N[C@@H](c2ccc(C(F)(F)F)cc2)c2ncccc2F)nc1 [Example 273, (S)—N^2-((3-Fluoropyridin-2-yl)(4-(trifluoromethyl)phenyl)-methyl)-N^5-methylpyridine-2,5-dicarboxamide 2,2,2-trifluoroacetate]"
4,198,"O=C(N[C@@H](c1ccc(C(F)(F)F)cc1)c1ncccc1C(F)(F)F)c1ccc2c(c1)NCCC2 [Example 274, (S)—N-((4-(Trifluoromethyl)phenyl)(3-(trifluoromethyl)pyridin-2-yl)methyl)-1,2,3,4-tetrahydroquinoline-7-carboxamide]"
5,68.6,"N#Cc1ccc(C(=O)N[C@@H](c2ccc(C(F)(F)F)cc2)c2ncccc2C(F)(F)F)nc1 [Example 275, (S)-5-Cyano-N-((4-(trifluoromethyl)phenyl)(3-(trifluoro-methyl)pyridin-2-yl)methyl)picolinamide]"
6,177,"O=C(N[C@@H](c1ccc(C(F)(F)F)cc1)c1ccccn1)c1ccc2c(c1)NCCC2 [Example 276, (S)—N-(Pyridin-2-yl(4-(trifluoromethyl)phenyl)methyl)-1,2,3,4-tetrahydroquinoline-7-carboxamide]"
7,188,"N#Cc1cc(C(=O)N[C@@H](c2ccc(C(F)(F)F)cc2)c2ncccc2F)c[nH]c1=O [Example 277, (S)-5-Cyano-N-((3-fluoropyridin-2-yl)(4-(trifluoromethyl)-phenyl)methyl)-6-oxo-1,6-dihydropyridine-3-carboxamide]"
8,317,"N#Cc1cccnc1[C@@H](NC(=O)c1ccc2cccnc2c1)c1ccc(C(F)(F)F)cc1 [Example 278, (S)—N-((3-Cyanopyridin-2-yl)(4-(trifluoromethyl)phenyl)-methyl)quinoline-7-carboxamide]"
9,1810,"O=C(O)COc1ccc(C(=O)N[C@@H](c2ccc(C(F)(F)F)cc2)c2ncccc2F)nc1 [Example 279, (S)-2-((6-(((3-Fluoropyridin-2-yl)(4-(trifluoromethyl)phenyl)-methyl)carbamoyl)pyridin-3-yl)oxy)acetic Acid]"
10,22.1,"O=C(O)c1ccc(C(=O)N[C@@H](c2ccc(C(F)(F)F)cc2)c2ncccc2F)nc1 [Example 280, (S)-6-(((3-Fluoropyridin-2-yl)(4-(trifluoromethyl)phenyl)-methyl)carbamoyl)nicotinic Acid]"
11,21.8,"O=C(O)c1ccc(C(=O)N[C@@H](c2ccc(C(F)(F)F)cc2)c2ncccc2C(F)(F)F)cc1 [Example 283, (S)-4-(((4-(Trifluoromethyl)phenyl)(3-(trifluoromethyl)-pyridin-2-yl)methyl)carbamoyl)benzoic Acid]"
12,346,"O=C(CCc1ccccn1)N[C@@H](c1ccc(C(F)(F)F)cc1)c1ncccc1C(F)(F)F [Example 284, (S)-3-(Pyridin-2-yl)-N-((4-(trifluoromethyl)phenyl)(3-(trifluoromethyl)pyridin-2-yl)methyl)propanamide]"
13,2160,"O=C(N[C@@H](c1ccc(C(F)(F)F)cc1)c1ncccc1C(F)(F)F)c1ccc(C(=O)O)nc1 [Example 285, (S)-5-(((4-(Trifluoromethyl)phenyl)(3-(trifluoromethyl)-pyridin-2-yl)methyl)carbamoyl)picolinic Acid 2,2,2-trifluoroacetate]"
14,1110,"CC(C)(C)c1cccnc1[C@@H](NC(=O)c1ccc2cccnc2c1)c1ccc(C(F)(F)F)cc1 [Example 286, (S)—N-((3-(tert-Butyl)pyridin-2-yl)(4-(trifluoromethyl)phenyl)-methyl)quinoline-7-carboxamide 2,2,2-trifluoroacetate]"
15,139,"O=C(Cc1ccccn1)N[C@@H](c1ccc(OC(F)(F)F)c(F)c1)c1ncccc1F [Example 288, (S)-N-((3-fluoro-4-(trifluoromethoxy)phenyl)(3-fluoropyridin-2-yl)methyl)-2-(pyridin-2-yl)acetamide]"
16,1610,"O=C(Cc1cccnc1)N[C@@H](c1ccc(OC(F)(F)F)c(F)c1)c1ncccc1F [Example 289, (S)-N-((3-fluoro-4-(trifluoromethoxy)phenyl)(3-fluoropyridin-2-yl)methyl)-2-(pyridin-3-yl)acetamide]"

row,IC50 [nM],SMILES
1,944,"O=C(Cc1ccncc1)N[C@@H](c1ccc(OC(F)(F)F)c(F)c1)c1ncccc1F [Example 290, (S)-N-((3-fluoro-4-(trifluoromethoxy)phenyl)(3-fluoropyridin-2-yl)methyl)-2-(pyridin-4-yl)acetamide]"
2,332,"O=C(N[C@@H](c1ccc(C(F)(F)F)cc1)c1nc(F)ccc1F)c1ccc(=O)[nH]c1 [Example 291, (S)-N-((3,6-difluoropyridin-2-yl)(4-(trifluoromethyl)phenyl)methyl)-6-oxo-1,6-dihydropyridine-3-carboxamide]"
3,52.4,"O=C(N[C@@H](c1ccc(OC(F)(F)F)c(F)c1)c1ccc(F)cn1)c1ccc(=O)[nH]c1 [Example 292, (S)-N-((3-fluoro-4-(trifluoromethoxy)phenyl)(5-fluoropyridin-2-yl)methyl)-6-oxo-1,6-dihydropyridine-3-carboxamide]"
4,14.5,"Cn1cc(C(=O)N[C@@H](c2ccc(OC(F)(F)F)c(F)c2)c2ccccn2)ccc1=O [Example 294, (S)-N-((3-fluoro-4-(trifluoromethoxy)phenyl)(pyridin-2-yl)methyl)-1-methyl-6-oxo-1,6-dihydropyridine-3-carboxamide]"
5,23.1,"Cn1cc(C(=O)N[C@@H](c2ccc(OC(F)(F)F)c(F)c2)c2ccccc2F)ccc1=O [Example 296, (S)-N-((3-fluoro-4-(trifluoromethoxy)phenyl)(2-fluorophenyl)methyl)-1-methyl-6-oxo-1,6-dihydropyridine-3-carboxamide]"
6,36.1,"C[C@H](O)Cn1cc(C(=O)N[C@@H](c2ccc(OC(F)(F)F)c(F)c2)c2ncccc2F)ccc1=O [Example 298, N-((S)-(3-fluoro-4-(trifluoromethoxy)phenyl)(3-fluoropyridin-2-yl)methyl)-1-((S)-2-hydroxypropyl)-6-oxo-1,6-dihydropyridine-3-carboxamide]"
7,69.7,"C[C@H](O)Cn1cc(C(=O)N[C@@H](c2ccc(C(F)(F)F)cc2)c2ncccc2F)ccc1=O [Example 300, N-((S)-(3-fluoropyridin-2-yl)(4-(trifluoromethyl)phenyl)methyl)-1-((S)-2-hydroxypropyl)-6-oxo-1,6-dihydropyridine-3-carboxamide]"
8,41.7,"C[C@@H](O)Cn1cc(C(=O)N[C@@H](c2ccc(C(F)(F)F)cc2)c2ncccc2F)ccc1=O [Example 301, N-((S)-(3-fluoropyridin-2-yl)(4-(trifluoromethyl)phenyl)methyl)-1-((R)-2-hydroxypropyl)-6-oxo-1,6-dihydropyridine-3-carboxamide]"
9,70.9,"CC(C)(O)Cn1cc(C(=O)N[C@@H](c2ccc(OC(F)(F)F)c(F)c2)c2ncccc2F)ccc1=O [Example 302, (S)-N-((3-fluoro-4-(trifluoromethoxy)phenyl)(3-fluoropyridin-2-yl)methyl)-1-(2-hydroxy-2-methylpropyl)-6-oxo-1,6-dihydropyridine-3-carboxamide]"
10,143,"CC(C)(O)Cn1cc(C(=O)N[C@@H](c2ccc(C(F)(F)F)cc2)c2ncccc2F)ccc1=O [Example 303, (S)-N-((3-fluoropyridin-2-yl)(4-(trifluoromethyl)phenyl)methyl)-1-(2-hydroxy-2-methylpropyl)-6-oxo-1,6-dihydropyridine-3-carboxamide]"
11,14.4,"O=C(N[C@@H](c1ccc(OC(F)(F)F)c(F)c1)c1ncccc1F)c1ccc(=O)n(C2COC2)c1 [Example 304, (S)-N-((3-fluoro-4-(trifluoromethoxy)phenyl)(3-fluoropyridin-2-yl)methyl)-1-(oxetan-3-yl)-6-oxo-1,6-dihydropyridine-3-carboxamide]"
12,29.6,"O=C(N[C@@H](c1ccc(C(F)(F)F)cc1)c1ncccc1F)c1ccc(=O)n(C2COC2)c1 [Example 305, (S)-N-((3-fluoropyridin-2-yl)(4-(trifluoromethyl)phenyl)methyl)-1-(oxetan-3-yl)-6-oxo-1,6-dihydropyridine-3-carboxamide]"
13,45.4,"O=C(N[C@@H](c1ccc(C(F)(F)F)cc1)c1ncccc1F)c1ccc2nnnn2c1 [Example 307, (S)-N-((3-fluoropyridin-2-yl)(4-(trifluoromethyl)phenyl)methyl)tetrazolo[1,5-a]pyridine-6-carboxamide]"
14,26.9,"O=C(N[C@@H](c1ccc(C(F)(F)F)cc1)c1ncccc1F)c1ccn2nnnc2c1 [Example 308, (S)-N-((3-fluoropyridin-2-yl)(4-(trifluoromethyl)phenyl)methyl)tetrazolo[1,5-a]pyridine-7-carboxamide]"
15,30.8,"O=C(N[C@@H](c1ccc(OC(F)(F)F)cc1)c1ncccc1F)c1ccc2nnnn2c1 [Example 309, (S)-N-((3-fluoropyridin-2-yl)(4-(trifluoromethoxy)phenyl)methyl)tetrazolo[1,5-a]pyridine-6-carboxamide]"
16,16,"O=C(N[C@@H](c1ccc(OC(F)(F)F)cc1)c1ncccc1F)c1ccn2nnnc2c1 [Example 310, (S)-N-((3-fluoropyridin-2-yl)(4-(trifluoromethoxy)phenyl)methyl)tetrazolo[1,5-a]pyridine-7-carboxamide]"

# Source: patent publication US8710043B2, “TRPM8 antagonists and their use in treatments” (Amgen Inc., priority 2011, dated 2014)
